Assay results from patent publication US10501454B2, “Monocyclic β-lactam-siderophore conjugate, and preparation method and use thereof” (Shanghai Institute of Materia Medica, Chinese Academy of …, priority 2016, dated 2019).
Structures can show the parent of a compound that is named as a salt.

What was measured:
[1] = test system: Acinetobacter baumannii (4 strains); assay: MIC, broth microdilution, normal MH medium; type: cell-based; details: Acinetobacter baumannii, read-out: Antibacterial activity MIC, Acinetobacter baumarmii (4 strains)
Experimental: (§1) Supplier of the strains: all of the above strains were provided by Sichuan Primed Shines Bio-tech Co., Ltd. A single colony was isolated by streaking on agar plates for each strain prior to the experiment, and the cells freshly cultured at 37° C. overnight were appropriately diluted for the experiment.
(§2) Medium: MH liquid medium (OXOID).
(§3) Culture condition: cells were incubated at 35-37° C. for 16-18 h.
(§4) The broth microdilution method recommended by Clinical and Laboratory Standards Institute (CLSI), Performance Standards for Antimicrobial Susceptibility Testing; Twenty-Third Informational Supplement, M02-All, M07-A9 and M11-A8, 2013 was used to determine the MIC value of each test sample against each test strain in the normal MH medium and iron-deficient MH medium.
(§5) After diluting each sample to different concentrations with normal MH medium, 100 μl of each test sample solution at different concentrations was separately aspirated onto a 96-well sterile polystyrene plate. Drug solutions were added to the 1st to 10th well with the final concentrations of 16, 8, 4, 2, 1, 0.5, 0.25, 0.125, 0.06, and 0.03 mg/L in each well, respectively. The 11th well, as a blank control, was not added with drugs and bacteria. The 12th well, as a bacterial growth control, was added with bacteria but no drug.
(§6) The test bacterial liquid was adjusted to a bacterial suspension of 0.5 Mcfarland standard with physiological saline, and diluted with MH broth at 1:100, and then added to the drug solution so that a final concentration of the bacterial liquid was approximately 10^4 CFU/ml; 100 μl of the bacterial liquid was further added to each of the above wells (the total volume in each well is 200 μl), which was sealed and placed in a 35-37° C. incubator for 18-20 h for testing the result. The OD600 value was measured by a microplate reader, Minimal Inhibitory Concentration (MIC) of a drug is the lowest concentration of the drug which prevents growth of bacteria in the wells. 1.2.2 MIC in iron-deficient MH medium

[2] = test system: Escherichia coli (4 strains); assay: MIC, broth microdilution, normal MH medium; type: cell-based
Experimental: as §1, §2, §3, §4, §5, §6

[3] = test system: Pseudomonas aeruginosa (4 strains); assay: MIC, broth microdilution, normal MH medium; type: cell-based; details: Pseudomonas aeruginosa, multidrug-resistant clinical isolates (integrator I, IMP4), read-out: Antibacterial activity MIC, Pseudomonas aeruginosa (4 strains)
Experimental: as §1, §2, §3, §4, §5, §6

[4] = test system: Klebsiella pneumoniae (4 strains); assay: MIC, broth microdilution, normal MH medium; type: cell-based
Experimental: as §1, §2, §3, §4, §5
The OD600 value was measured by a microplate reader, Minimal Inhibitory Concentration (MIC) of a drug is the lowest concentration of the drug which prevents growth of bacteria in the wells. 1.2.2 MIC in iron-deficient MH medium

[5] = Pharmacokinetic test in rats, intravenous; type: in vivo; details: SD rats, intravenous 1.0 mg/kg, plasma
Experimental: 2.1.2 Test animals: 6 SD rats, male, weight: 200-220 g.
2.1.3 Drug Preparation: an appropriate amount of the sample was weighed and prepared into a 0.2 mg/mL solution with water for injection.
2.1.4 Administration of the drug: 6 SD rats, male, weight: 200-220 g, were randomly divided into two groups, 3 rats in each group. […] The intravenous dose was 1.0 mg/kg, and the intravenous volume was 5 mL/kg.
Intravenous administration: 2 min, 5 min, 15 min, 30 min, 45 min, 1 h, 1.5 h and 3 h after administration. At the above set time points, 0.3 ml of venous blood was taken from the posterior venous plexus of the rat eye, placed in a heparinized tube, centrifuged at 11,000 rpm for 5 min, then the plasma was separated and stored in a refrigerator at −20° C. All of the rats were fed 2 hours after administration.
After administration, the pharmacokinetic parameters were calculated using a non-compartmental model of WinNonlin 5.3 software (Pharsight, USA).

## CC(C)C(O/N=C(\C(=O)N[C@@H]1C(=O)N(OS(=O)(=O)O)C1(C)C)c1csc(N)n1)c1cc(=O)c(O)cn1O (stereo partly drawn) [Compound 12, (3S)-3-((Z)-2-(2-aminothiazol-4-yl)-2-((1-(1,5-dihydroxy-4-oxo-1,4-dihydropyridin-2-yl)methylisopropyloxy)imine)acetamido)-2,2-dimethyl-4-oxoazetidine-1-hydrogen sulfate]
[1]
  MIC: 2 µg/mL
[2]; Escherichia coli, clinical isolates (ESBLs), read-out: Antibacterial activity MIC, Escherichia coli (4 strains)
  MIC: 0.03 to 0.25 µg/mL
[2]; from MIC of Table 2
  times more effective than BAL30072 in inhibitory activity against Escherichia coli: 4-32 times
[3]
  MIC: 0.25 to 2 µg/mL
[4]; Klebsiella pneumoniae, multi-drug resistant clinical isolates (KPC2), read-out: Antibacterial activity MIC, Klebsiella pneumoniae (4 strains)
  MIC: 0.5 to 1 µg/mL
[4]; from MIC of Table 2
  times more effective than BAL30072 in inhibitory activity against Klebsiella pneumoniae: 64-128 times
[5]
  Clearance CL: 11 ± 5.5 mL/min/kg
  Half-life T1/2: 27 ± 6.6 min
[5]; male, rat, in vivo, read-out: Apparent Distribution Volume Vss
  Vd: 0.3 ± 0.03 L/kg
[5]; male, rat, in vivo, read-out: Area Under the Curve AUC0-4
  AUC(0-t): 1730 ± 697 ng·h/mL
[5]; male, rat, read-out: Residence Time MRT
  MRT: 30.6 ± 10.8 min
